Test results: PMC7696940, “Effects of Rationally Designed Physico-Chemical Variants of the Peptide PuroA on Biocidal Activity towards Bacterial and Mammalian Cells” (International Journal of Molecular Sciences, 2020)
Where no end group is shown, it is not given here.

Experiments:
[1] = tested on: E. coli and S. aureus; assay: Salt tolerance (MICs under 0-150 mM NaCl, summary); type: cell-based, Escherichia coli; Staphylococcus aureus; parameters: key: Up to 50 mM: no effects on antibacterial activity up to 50 mM NaCl but increase in the MICs for E. coli and S. aureus at 100 mM NaCl; Intolerant: not resistant to salt effects even at 50 mM NaCl; Up to 150 mM: no effects on antibacterial activity up to 150 mM NaCl; settings: MICs for E. coli and S. aureus in MHB with 0, 50, 100 or 150 mM NaCl
Procedure, shortened: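 Broth microdilution MICs in Mueller-Hinton broth, ~1×10^6 CFU/mL inoculum, peptides at final 250–0.5 μg/mL, overnight at 37 °C, growth by A595; triplicate, mode reported. For salt tolerance, S. aureus and E. coli were tested in MHB containing 0, 50, 100 or 150 mM NaCl.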

[2] = tested on: pBlueScript SK+ plasmid DNA; assay: In vitro DNA-binding assay (gel retardation); settings: 100 ng pBlueScript SK+, peptide 8-500 µg/mL, 1 h room temperature, 1% agarose
Procedure: The ability of peptides to bind to purified DNA (indicative of in vivo DNA binding potential) was tested by the modified gel retardation assay developed by Alfred et al.. The DNA of pBlueScript SK+ (100 ng) was incubated with peptides (to final concentrations of 8, 16, 32, 64, 125, 250 or 500 µg/mL) in 15 µL volumes made with sterile MilliQ water, the held at room temperature for 1h. Loading dye was added to each sample and the samples electrophoresed on 1% agarose gels. The gels were then immersed in ethidium bromide ([…]) then visualized and imaged

With RKRWWRWWKWWKR-NH2 [Peptide P1] the “Salt Tolerance” value [1] was “Up to 150 mM”.
In the case of WRWWKWW-NH2 [Peptide W7], the “Salt Tolerance” value [1] is reported as “Up to 150 mM” and the “Binding to DNA in vitro (concentration inhibiting plasmid migration)” value [2] is reported as at least 16 µg/mL.
